# According to US20060154903A1, “Betulinol derivatives as anti-cancer agents” (priority 2004, published 2006):
# Where two headings read alike, the source gives them in different places.
# Experiments:
# LNCaP xenografts = format: in vivo, athymic mice
# Method: All the animal studies were performed according to the guidelines and approval of the Institutional Animal Care and Use Committee and Research Animal Resource Center of Weill Medical College of Cornell University, New York. Twelve mice of 13 weeks of age were purchased from The National Cancer Institute (NCI) and were housed in a pathogen-free environment under controlled conditions of light and humidity and with free access to food and water. LNCaP cells were grown in RPMI-1640 with 10% FBS until 80-90% confluent. Cells were scraped into PBS and collected by centrifugation. The LNCaP cell pellets were suspended in Matrigel (Ref) at 2.5×10^7 cells/ml. Mice were injected subcutaneously (“s.c.”) with 200 μl (5×10^6 cells) of the cell suspension at one site on the flank. Visible tumor grew after 7-8 days following implantation and mice were divided into three groups of four mice each.
# Mice received s.c. injection daily for ten days. […] Tumors were measured daily with calipers, and tumor volumes were calculated by the formula: π/6(1×w×h). Animals were also weighed daily and monitored for general health status and vital signs of possible toxicity due to treatment. At the end of the treatment period, the animals were sacrificed and tumors were excised, weighed and prepared for immunohistochemical and histological studies. […]
# [1] = Solubilization in PBS containing human γ-globulin, human albumin and ethanol; conditions: for Observation: 1 × 10^−3 mol/L
# Excerpt: Human γ-Globulin and human albumin are two major biocompatible components in human serum.
# [2] = system: human prostate cancer PC-3 cell line; test: MTT cytotoxicity assay, PC-3; format: cell-based; conditions: for Percent Killed: Prostate (1); for Growth Inhibition %: 1 × 10^−5
# Method: (§1) The human prostate cancer LNCaP, PC-3, and DU-145 cell lines, as well as human fibroblast cell line, were obtained from the American Type Culture Collection (“ATCC”) and maintained in RPMI-1640, F-12k, and MEM mediums, respectively, supplemented with 10% FBS. Cell lines were maintained at 37° C. under a humidified atmosphere and 5% CO2 for testing of the cytotoxicity of betulinol derivatives. The cytotoxicity assay was performed using MTT assay according to the instructions of ATCC protocol. Cells 1×10^5 in 0.1 ml/well were plated in 96-well culture plates (Costar) and incubated with a different dilution of betulinol derivatives for 24, 48, and 72 hours. Ten μl of 3-[4,5-dimethylthiazol-2-yl]-2,5 diphenyl tetrazolium bromide was added into each well at the end of each incubation period. The reaction product, formazan, was dissolved in the detergent, and the absorbance was read at 540 nm (Ref).
# DU-145 = test: Anchorage-independence growth assay in soft agar, DU-145; format: cell-based; conditions: Homo sapiens, 336 h, 1 × 10^−5 M, 14 days, read-out: Inhibition % on Anchorage-independent Growth
# Method: (§2) Anchorage-independence growth assay was performed to determine the ability of cancer cells to form colonies in soft agar. 1.0×10^4 cancer cells were suspended in 2 ml of DMEM medium containing 0.33% agar in the presence or absence of betulinol derivatives. The compounds were overlaid on a 2 ml matrix made up of 0.6% agar. The cultures were incubated at 37° C. in a humidified environment under 5% CO2 for 14 days without medium change. The cultures were fixed in Comoy's fixative (acetic acid/100% ethanol 1:3 v/v) and the numbers of anchorage-independent, tridimentional colonies (≧40 μm diameter) formed were counted under 10× magnification (Katdare et al., Cancer Lett. 111:141-47 (1997), which is hereby incorporated by reference in its entirety).
# 184B5/HER = test: In vitro cytotoxicity, Breast (1), 184B5/HER; format: cell-based; conditions: 1 × 10^−4 M
# LNCaP = test: Anchorage-independence growth assay in soft agar, LNCaP; format: cell-based; conditions: Homo sapiens, 336 h, 1 × 10^−5 M, 14 days, read-out: Inhibition % on Anchorage-independent Growth
# Method: as §2
# Bladder cancer cells = conditions: 1 × 10^−4 M; Bladder (1), cell line not given
# [3] = system: human prostate cancer DU-145 cell line; test: MTT cytotoxicity assay, DU-145; format: cell-based; conditions: for Percent Killed: Prostate (1); for Growth Inhibition %: 1 × 10^−5
# Method: as §1
# [4] = system: human prostate cancer LNCaP cell line; test: MTT cytotoxicity assay, LNCaP; format: cell-based; conditions: for Percent Killed / inhibition at 100 µM / inhibition at 10 µM / inhibition at 1 µM / Growth Inhibition %: LNCaP; for Percent Killed: Prostate (1); for inhibition at 100 µM / inhibition at 10 µM / inhibition at 1 µM: Homo sapiens, read-out: Growth Inhibition %; for inhibition at 1 µM: 1 × 10^−6 M; for Growth Inhibition %: 1 × 10^−5 (Table 12)
# Method: as §1
# However, these compounds were not tested on prostate cancer LNCaP cell line by NCI. […] The anti-tumor activity of the compounds was determined at three doses and the total growth inhibition kill effect as pertinent of the control at 24, 48, and 72 hours as presented in Table 11.
# PC-3 = test: Anchorage-independence growth assay in soft agar, PC-3; format: cell-based; conditions: Homo sapiens, 336 h, 1 × 10^−5 M, 14 days, read-out: Inhibition % on Anchorage-independent Growth
# Method: as §2
# [5] = system: human fibroblast cell line; format: cell-based; conditions: Fibroblasts; for Percent Killed: Prostate (1); for Growth Inhibition %: 1 × 10^−5
# Method: as §1
# [6] = Solubility in DMSO diluted with culture medium (GC); conditions: for State of solution: 0.5 mg/mL (1 × 10^−3 mol/L), culture medium
# Method: The residue was dissolved in chloroform analyzed on GC.
# Ethyl ether was then evaporated. […] Concentration of drug in the above solutions was analyzed by GC and determined from the standard solubility curve.
smiles,measurement,setting,value
"C=C(C)C1CCC2(C(=O)O)CC[C@]3(C)[C@H](CC[C@@H]4[C@@]5(C)CCC(=O)C(C)(C)[C@@H]5CC[C@]43C)C12 (some centres unmarked) [Compound 4, Betulonic Acid]",health status and vital signs of the mice during treatment,"LNCaP xenografts; mouse, in vivo",no adverse effects on vital signs
same,increase of tumor volume on day 10 compared to day 1,"LNCaP xenografts; s.c. daily for ten days, 20 mg/kg, LNCaP xenografts in athymic mice",20.3%
same,Observation,"[1]; ethanol 220 μL, γ-globulin PBS 1.48 mL, albumin PBS 0.49 mL",Cloudy
same,Observation,"[1]; ethanol 280 μL, γ-globulin PBS 0 mL, albumin PBS 2.50 mL",Complete
same,Observation,"[1]; ethanol 280 μL, γ-globulin PBS 2.50 mL, albumin PBS 0 mL",Suspension
same,Observation,"[1]; ethanol 308 μL, γ-globulin PBS 0.69 mL, albumin PBS 2.07 mL",Almost Clear
same,Observation,"[1]; ethanol 330 μL, γ-globulin PBS 1.48 mL, albumin PBS 1.48 mL",Little Cloudy
same,Observation,"[1]; ethanol 352 μL, γ-globulin PBS 0.32 mL, albumin PBS 2.85 mL",Clear
same,concentration completely dissolved,"[1]; PBS containing 4% human albumin, final concentration of 10% ethanol",1×10^−3 mol per liter
same,concentration completely dissolved,[1]; human albumin PBS solution with 10% ethanol,0.001 mol/L
same,Percent Killed,[2]; 1 × 10^−4 M,54%
same,Percent Killed,[2]; 1 × 10^−5 M,41%
same,Growth Inhibition %,[2]; 24 hours,9.7%
same,Growth Inhibition %,[2]; 48 hours,41.1%
same,inhibition at 10 µM,DU-145,12.5%
same,Percent Killed,184B5/HER,Toxic
same,inhibition at 10 µM,LNCaP,0%
same,Percent Killed,Bladder cancer cells,37%
same,Percent Killed,[3]; 1 × 10^−4 M,54%
same,Percent Killed,[3]; 1 × 10^−5 M,51%
same,Growth Inhibition %,[3]; 24 hours,33%
same,Growth Inhibition %,[3]; 48 hours,51%
same,Percent Killed,[4]; 1 × 10^−4 M,81%
same,Percent Killed,[4]; 1 × 10^−5 M,75%
same,inhibition at 100 µM,"[4]; 24 h, 24 hours, 1 × 10^−4 M",70.4 ± 19.1%
same,inhibition at 10 µM,"[4]; 24 h, 24 hours, 1 × 10^−5 M",24.2 ± 10.8%
same,inhibition at 1 µM,"[4]; 24 h, 24 hours",9.2 ± 6.1%
same,inhibition at 100 µM,"[4]; 48 h, 48 hours, 1 × 10^−4 M",81 ± 12.6%
same,inhibition at 10 µM,"[4]; 48 h, 48 hours, 1 × 10^−5 M",69.5 ± 20.2%
same,inhibition at 1 µM,"[4]; 48 h, 48 hours",27.8 ± 11.4%
same,inhibition at 100 µM,"[4]; 72 h, 72 hours, 1 × 10^−4 M",80.8 ± 15.8%
same,inhibition at 10 µM,"[4]; 72 h, 72 hours, 1 × 10^−5 M",88.4 ± 7.96%
same,inhibition at 1 µM,"[4]; 72 h, 72 hours",45 ± 12.3%
same,Growth Inhibition %,[4]; 24 hours,38 ± 8%
same,Growth Inhibition %,[4]; 48 hours,75 ± 9%
same,kill effects on LNCaP cell growth compared to the other compounds,"[4]; MTT assay, compounds 1-8",highest kill effects
same,inhibition at 10 µM,PC-3,26.1%
same,Percent Killed,[5]; 1 × 10^−4 M,No effect
same,Percent Killed,[5]; 1 × 10^−5 M,No effect
same,Growth Inhibition %,[5]; 24 hours,0%
same,Growth Inhibition %,[5]; 48 hours,0%
same,State of solution,[6]; 3% DMSO in total Vol.,Suspension
same,State of solution,[6]; 9% DMSO in total Vol.,Suspension
same,State of solution,[6]; 14% DMSO in total Vol.,Cloudy
same,State of solution,[6]; 20% DMSO in total Vol.,clear solution
same,State of solution,"[6]; 20% DMSO in total Vol., listed as BA",Clear
same,amount dissolved out of 3 mg,"[6]; 1% DMSO in culture medium containing 10% FBS, nominal 1×10^−3 mol/L",0.4 mg
